Key:
[1] = system: female rats; settings: cited from earlier work
[2] = ambient conditions
Protocol: A solution that remains intact to an extent acceptable for pharmaceutical use for the time required between preparing the solution and administering it to the patient (for example 2 hours, for example 1 hour) is considered herein to be “stable”.

[3] = Protocol: 0.79 g Cremophor EL (Trade Mark) was weighed in an Erlenmeyer flask, and 60 mL aCSF (obtained from Tocris Pharma) was added. […] The solution was then placed in an ultrasonic bath maintained at 25-28° C. for 20 minutes. […] The solution was ultrasonicated for another 25 minutes.
The mixture was then filtered using a Millipore Millex-LG, PTFE, 0.20 μm filter (SLLG025SS).
500 μL Cremophor EL was pipetted into an Erlenmeyer flask containing 40 mL in-house prepared aCSF. […] An additional 10 minutes of ultrasonication was carried out to ensure complete dissolution.

[4] = biological target: MEK2 (Homo sapiens, UniProt P36507); settings: cited from earlier work
Sequence of MEK2 (P36507 whole entry, species assumed): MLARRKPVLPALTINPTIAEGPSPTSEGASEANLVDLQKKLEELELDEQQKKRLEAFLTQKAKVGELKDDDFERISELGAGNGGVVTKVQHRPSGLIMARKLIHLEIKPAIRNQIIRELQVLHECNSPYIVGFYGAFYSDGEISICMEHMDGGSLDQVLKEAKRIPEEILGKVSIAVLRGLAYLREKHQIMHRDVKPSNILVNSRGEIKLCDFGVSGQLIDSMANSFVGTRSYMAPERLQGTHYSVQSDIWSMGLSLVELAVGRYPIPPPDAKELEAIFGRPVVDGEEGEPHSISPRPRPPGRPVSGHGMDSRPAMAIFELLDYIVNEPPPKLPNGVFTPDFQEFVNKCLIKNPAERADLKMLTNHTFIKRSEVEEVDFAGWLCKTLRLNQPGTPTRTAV

[5] = Calculated concentrations based on ventricle and CSF volumes; format: in vivo; settings: dog; for Cmax: Beagle, icv or intrathecal, ventricle volume 2 ml; for Cmax CSF: CSF volume 20 mL
[6] = system: rats; settings: in 0.5% Cremophor in aqueous solution; cited from earlier work

In the case of `N#CC(=C(/N)Sc1ccccc1N)/C(C#N)=C(\N)Sc1ccccc1N` [Example U0126, 1,4-Diamino-2,3-dicyano-1,4-bis(o-aminophenylmercapto) butadiene], the “long-term neurologic outcome after stroke” value [1] is given as “improves long-term neurologic outcome”, the “time solid form remains intact” value [2] is given as “several decades” and the “measured content of U0126” value ([3]; Example 2, clear solution after 0.20 μm PTFE filtration, 0.5% v/v Cremophor EL in aCSF) is given as 68 µM. For the same compound, the “U0126 content of filtered samples” value ([3]; Example 3, 0.5% Cremophor EL in aCSF, pH 8.6, after 0.20 μm PTFE filtration) was 85 to 99 µM, the “inhibitor of MEK2” value [4] was “inhibitor” and the Cmax ([5]; 20 μM/0.5 mL) was 5 µM. For the same compound, the Cmax ([5]; 100 μM/0.5 mL) was 25 µM, the Cmax ([5]; 200 μM/0.5 mL) was 50 µM and the “Cmax CSF” value ([5]; 20 μM/0.5 mL) was 0.5 µM. For the same compound, the “Cmax CSF” value ([5]; 100 μM/0.5 mL) was 2.5 µM, the “Cmax CSF” value ([5]; 200 μM/0.5 mL) was 5 µM and the “maximum tolerated intracerebroventricular (ICV) concentration in vivo” value [6] was 10 µM.
